Experimental data from ChEMBL document CHEMBL4837225, “Water-soluble derivatives of evodiamine: Discovery of evodiamine-10-phosphate as an orally active antitumor lead compound” (Eur J Med Chem, 2021).
Values after ≈ are worked out from the molar mass of the structure shown. Active and inactive are the calls of the source. The calls are words filed in the database; no cut-off is given here.

Columns and labels:
HCT-116 [1] = assay: Antiproliferative activity against human HCT-116 cells assessed as inhibition of cell proliferation incubated for 72 hrs by CCK8 assay; type: functional, cell-based; settings: HCT-116, 72 h
MDA-MB-231 = assay: Antiproliferative activity against human MDA-MB-231 cells assessed as inhibition of cell proliferation incubated for 72 hrs by CCK8 assay; type: functional, cell-based; settings: MDA-MB-231, 72 h
[2] = Solubility of the compound in double distilled water; type: physicochemical
[3] = target: DNA topoisomerase 2-alpha (Homo sapiens) (UniProt P11388); assay: Inhibition of TOP2 (unknown origin) assessed as formation of short DNA fragments using supercoiled plasmid DNA at 100 uM by ethidium bromide staining based gel
Chain of DNA topoisomerase 2-alpha (Homo sapiens) (P11388 whole entry, the tested form may be a part): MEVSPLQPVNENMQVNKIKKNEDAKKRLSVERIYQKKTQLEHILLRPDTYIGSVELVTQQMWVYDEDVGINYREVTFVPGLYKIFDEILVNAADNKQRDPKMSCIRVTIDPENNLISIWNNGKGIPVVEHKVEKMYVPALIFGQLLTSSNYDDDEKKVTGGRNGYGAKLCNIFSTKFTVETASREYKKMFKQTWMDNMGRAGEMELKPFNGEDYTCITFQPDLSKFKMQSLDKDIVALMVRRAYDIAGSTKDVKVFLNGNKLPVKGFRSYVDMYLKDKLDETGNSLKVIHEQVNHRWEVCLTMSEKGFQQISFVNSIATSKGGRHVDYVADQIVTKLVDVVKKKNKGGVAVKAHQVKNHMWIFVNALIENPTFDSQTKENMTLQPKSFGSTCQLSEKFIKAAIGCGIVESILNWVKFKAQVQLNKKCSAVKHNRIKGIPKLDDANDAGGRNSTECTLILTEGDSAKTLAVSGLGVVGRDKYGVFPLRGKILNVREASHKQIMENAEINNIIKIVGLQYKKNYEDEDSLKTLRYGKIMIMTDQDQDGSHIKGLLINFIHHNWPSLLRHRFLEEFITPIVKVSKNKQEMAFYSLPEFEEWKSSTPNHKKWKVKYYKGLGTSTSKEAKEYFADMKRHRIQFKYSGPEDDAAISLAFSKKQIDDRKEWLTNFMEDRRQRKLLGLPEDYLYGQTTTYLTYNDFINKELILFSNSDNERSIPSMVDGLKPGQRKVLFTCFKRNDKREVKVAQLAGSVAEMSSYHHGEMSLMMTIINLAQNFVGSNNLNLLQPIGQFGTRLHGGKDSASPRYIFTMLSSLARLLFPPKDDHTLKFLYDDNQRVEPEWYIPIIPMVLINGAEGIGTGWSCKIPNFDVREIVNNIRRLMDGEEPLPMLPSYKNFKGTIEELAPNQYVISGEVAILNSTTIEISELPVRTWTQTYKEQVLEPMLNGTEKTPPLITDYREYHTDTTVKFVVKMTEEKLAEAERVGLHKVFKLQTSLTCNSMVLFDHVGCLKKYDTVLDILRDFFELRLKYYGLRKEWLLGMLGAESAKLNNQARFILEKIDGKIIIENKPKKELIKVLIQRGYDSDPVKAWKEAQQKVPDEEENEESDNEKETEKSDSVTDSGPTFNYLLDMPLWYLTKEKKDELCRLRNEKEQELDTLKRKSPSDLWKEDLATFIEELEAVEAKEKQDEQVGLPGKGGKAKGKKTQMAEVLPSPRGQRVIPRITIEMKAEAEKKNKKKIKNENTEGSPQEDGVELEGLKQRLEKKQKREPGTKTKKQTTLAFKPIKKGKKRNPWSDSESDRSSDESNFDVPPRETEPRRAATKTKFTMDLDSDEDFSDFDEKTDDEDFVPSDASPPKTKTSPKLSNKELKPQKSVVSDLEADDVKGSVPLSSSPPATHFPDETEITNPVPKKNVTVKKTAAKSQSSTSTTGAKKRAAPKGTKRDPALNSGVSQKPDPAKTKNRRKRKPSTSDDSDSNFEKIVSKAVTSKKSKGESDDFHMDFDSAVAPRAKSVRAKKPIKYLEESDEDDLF

HCT-116 [4] = assay: Antitumor activity against human HCT-116 cells xenografted in BALB/c nude mouse assessed as inhibition of tumor growth at 150 mg/kg, po BID measured by caliper relative to control; type: functional; settings: HCT-116, po, read-out: TGI
[5] = Half life in mouse liver microsomes; type: ADME, Microsome
[6] = Toxicity in BALB/c nude mouse xenografted with human HCT-116 cells assessed as effect on body weight at 60 mg/kg, po bid for 21 days relative to control; type: organism-based; settings: in vivo, 504 h, time 21 day
[7] = Toxicity in BALB/c nude mouse xenografted with human HCT-116 cells assessed as effect on body weight at 150 mg/kg, po bid for 21 days relative to control; type: organism-based; settings: in vivo, 504 h, time 21 day
A549 = assay: Antitumor activity against human A549 cells xenografted in BALB/c nude mouse assessed as inhibition of tumor growth at 150 mg/kg, po BID for 14 days relative to control; type: functional; settings: 336 h, time 14 day, read-out: TGI
[8] = Toxicity in BALB/c nude mouse xenografted with human A549 cells assessed as morphological changes in kidney at 150 mg/kg, po bid by H&E staining based light microscopic analysis; type: organism-based; settings: in vivo
HCT-116 [9] = assay: Antitumor activity against human HCT-116 cells xenografted in BALB/c nude mouse assessed as necrosis at 150 mg/kg, po bid by H&E staining based light microscopic analysis; type: functional, organism-based
HCT-116 [10] = assay: Induction of apoptosis in human HCT-116 cells assessed as early apoptotic cells level at 0.1 uM incubated for 48 hrs by annexin V-FITC/propidium iodide staining based flow cytometry (reference value: 2.02%); type: functional
HCT-116 [11] = assay: Induction of apoptosis in human HCT-116 cells assessed as late apoptotic cells level at 0.1 uM incubated for 48 hrs by annexin V-FITC/propidium iodide staining based flow cytometry (reference value: 1.87%); type: functional
HCT-116 [12] = assay: Induction of apoptosis in human HCT-116 cells assessed as early apoptotic cells level at 0.5 uM incubated for 48 hrs by annexin V-FITC/propidium iodide staining based flow cytometry (reference value: 2.02%); type: functional
HCT-116 [13] = assay: Induction of apoptosis in human HCT-116 cells assessed as late apoptotic cells level at 0.5 uM incubated for 48 hrs by annexin V-FITC/propidium iodide staining based flow cytometry (reference value: 1.87%); type: functional
HCT-116 [14] = assay: Induction of apoptosis in human HCT-116 cells assessed as upregulation of Bax expression at 0.2 to 5 uM measured after 24 hrs by Western blot analysis; type: functional, cell-based; settings: dose 0.2-5 µM
HCT-116 [15] = assay: Induction of apoptosis in human HCT-116 cells assessed as downregulation of Bcl-2 expression at 0.2 to 5 uM measured after 24 hrs by Western blot analysis; type: functional, cell-based; settings: dose 0.2-5 µM
HCT-116 [16] = assay: Cell cycle arrest in human HCT-116 cells assessed as accumulation at S phase at 0.1 uM incubated for 24 hrs by propidium iodide staining based flow cytometric analysis (Rvb =44.3 %); type: functional
HCT-116 [17] = assay: Induction of apoptosis in human HCT-116 cells assessed as increase in ratio of Bax to Bcl2 level at 0.2 to 5 uM measured after 24 hrs by Western blot analysis; type: functional, cell-based; settings: dose 0.2-5 µM
HCT-116 [18] = assay: Induction of apoptosis in human HCT-116 cells assessed as increase in caspase-3 level at 0.2 to 5 uM measured after 24 hrs by Western blot analysis; type: functional, cell-based; settings: dose 0.2-5 µM
HCT-116 [19] = assay: Induction of apoptosis in human HCT-116 cells assessed as increase in caspase-9 level at 0.2 to 5 uM measured after 24 hrs by Western blot analysis; type: functional, cell-based; settings: dose 0.2-5 µM
HCT-116 [20] = assay: Induction of apoptosis in human HCT-116 cells assessed as increase in p-53 level at 0.2 to 5 uM measured after 24 hrs by Western blot analysis; type: functional, cell-based; settings: dose 0.2-5 µM
HCT-116 [21] = assay: Cell cycle arrest in human HCT-116 cells assessed as accumulation at G2 phase at 0.1 uM incubated for 24 hrs by propidium iodide staining based flow cytometric analysis (Rvb =20 %); type: functional
HCT-116 [22] = assay: Cell cycle arrest in human HCT-116 cells assessed as accumulation at G1 phase at 0.5 uM incubated for 24 hrs by propidium iodide staining based flow cytometric analysis (Rvb =35.7 %); type: functional
HCT-116 [23] = assay: Cell cycle arrest in human HCT-116 cells assessed as accumulation at S phase at 0.5 uM incubated for 24 hrs by propidium iodide staining based flow cytometric analysis (Rvb =44.3 %); type: functional
HCT-116 [24] = assay: Cell cycle arrest in human HCT-116 cells assessed as accumulation at G2 phase at 0.5 uM incubated for 24 hrs by propidium iodide staining based flow cytometric analysis (Rvb =20 %); type: functional
Tubulin = assay: Inhibition of tubulin polymerization (unknown origin); type: protein-complex assay, Homo sapiens
[25] = target: T1, DNA topoisomerase 1 (Homo sapiens) (UniProt P11387); assay: Inhibition of TOP1 (unknown origin) assessed as decrease in relaxation of supercoiled DNA using pBR322 plasmid DNA by ethidium bromide staining based gel electrophoresis
T1 sequence (whole entry): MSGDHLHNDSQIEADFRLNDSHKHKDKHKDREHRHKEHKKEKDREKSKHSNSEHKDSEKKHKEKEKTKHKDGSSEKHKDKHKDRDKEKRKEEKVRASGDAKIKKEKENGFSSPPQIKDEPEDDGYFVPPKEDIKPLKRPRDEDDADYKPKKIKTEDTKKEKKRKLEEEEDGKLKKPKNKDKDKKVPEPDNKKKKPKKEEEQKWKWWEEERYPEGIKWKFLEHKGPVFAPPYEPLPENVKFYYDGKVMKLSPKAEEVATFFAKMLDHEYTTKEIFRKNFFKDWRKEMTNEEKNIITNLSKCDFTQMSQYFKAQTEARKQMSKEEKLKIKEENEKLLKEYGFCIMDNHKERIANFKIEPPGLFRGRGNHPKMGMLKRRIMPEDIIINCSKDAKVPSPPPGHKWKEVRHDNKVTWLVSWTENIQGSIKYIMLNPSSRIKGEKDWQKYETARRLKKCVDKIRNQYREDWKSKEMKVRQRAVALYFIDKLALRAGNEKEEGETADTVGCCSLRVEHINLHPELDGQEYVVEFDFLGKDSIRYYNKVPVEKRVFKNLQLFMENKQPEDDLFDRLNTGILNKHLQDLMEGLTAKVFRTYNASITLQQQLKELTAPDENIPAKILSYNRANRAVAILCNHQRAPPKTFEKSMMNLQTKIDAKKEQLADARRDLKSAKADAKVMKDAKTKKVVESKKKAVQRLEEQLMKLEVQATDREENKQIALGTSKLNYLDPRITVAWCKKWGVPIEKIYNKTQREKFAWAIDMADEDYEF

IC50 (HCT-116 [1]): 66 nM
IC50 (MDA-MB-231): 650 nM
solubility [2]: 36 µg/mL (≈ 90.1 µM)
inhibition [3]: Active
half-life [5]: 58.4 min
IC50 (Tubulin): 31600 nM
inhibition [25]: Dose-Dependent Effect
Structure (SMILES): CN1c2ccccc2C(=O)N2CCc3c([nH]c4ccc(OP(=O)(O)O)cc34)C21 (stereo not drawn)
inhibition in vivo at 150 mg/kg (HCT-116 [4]): 48%
Activity [6]: Non-Toxic
Activity [7]: Toxic
inhibition in vivo at 150 mg/kg (A549): 59%
Activity [8]: Non-Toxic
Activity (HCT-116 [9]): Active
Activity (HCT-116 [10]): 38.55%
Activity (HCT-116 [11]): 14.8%
Activity (HCT-116 [12]): 44.04%
Activity (HCT-116 [13]): 13.49%
Activity (HCT-116 [14]): Active
Activity (HCT-116 [15]): Active
Activity (HCT-116 [16]): 40.7%
Activity (HCT-116 [17]): Active
Activity (HCT-116 [18]): Active
Activity (HCT-116 [19]): Active
Activity (HCT-116 [20]): Active
Activity (HCT-116 [21]): 53.4%
Activity (HCT-116 [22]): 4.3%
Activity (HCT-116 [23]): 30.4%
Activity (HCT-116 [24]): 65.3%
